Measurements: patent publication US6355619B1, “Peptide tumor cell growth inhibitors” (Board of Regents, The University of Texas System, priority 1996, dated 2002)
pEC50: −log10 of the molar value.

Columns and labels:
[1] = molecular target: T1, MIP2β binding to human neutrophils (Homo sapiens, UniProt P25025); assay: Binding of radioiodinated MIP2β to human neutrophils; conditions: 1 nM MIP2β
T1 construct: endogenous in cells; host or cells: human neutrophils
Procedure: FIG. 10. Ac-RRWWCX (SEQ ID NO:23) Inhibits Binding of GRO and MIP2β to human neutrophils. Radioiodinated MIP2β and GRO/MGSA were mixed with various concentration of Ac-RRWWCR-NH2 and incubated at room temperature for 15 min. Neutrophil suspension (1×10^6 cells in 160 μl PBS containing 0.1% BSA) was added to 40 μl of the mixture and incubated for 90 min on ice. The radioactivity bound to the cells was separated from free radioactivity by centrifugation through an oil layer. The % binding inhibition was calculated as follows: [formula]
MIP2β and GRO/MGSA were radioiodinated using Bolten Hunter reagent. The radioiodinated components were mixed with various concentration of the Ac-RRWWCX-NH2 (SEQ ID NO:23) peptide and incubated at room temperature for 15 min. Neutrophil suspension (1×10^6 cells in 160 μl PBS containing 0.1% BSA) was added to 40 μl of the mixture and incubated for 90 min on ice. The radioactivity bound to the cells was separated from free radioactivity by centrifugation through an oil layer. The bound radioactivity is an indication of bound CXC intercrine peptide. The % binding inhibition in the presence of Ac-RRWWCX-NH2 (SEQ ID NO:23) was calculated as follows: [formula]
where B is bound radioactivity in the presence of the peptide, T is bound radioactivity in the absence of the peptide, and NSP is bound radioactivity in the presence of excess nonlabeled ligand.

[2] = test system: fMLP-stimulated neutrophil enzyme release; assay: β-glucuronidase release from neutrophils stimulated by fMLP; format: cell-based, human; conditions: 100 nM fMLP
Procedure: (§1) FIG. 8. The Effect of Ac-RRWWCR-NH2 (SEQ ID NO:1) on β-glucuronidase Release. Neutrophils pretreated with cytochalasin B were incubated with 100 nM IL-8 (●), 100 nM fMLP (▪), 100 nM C5a (_) or 100 nM leukotriene B4 ? or without any stimulant (◯) in the presence of increasing concentration of Ac-RRWWCR-NH2 (SEQ ID NO:1) for 30 min at 37° C. β-glucuronidase activity of supernatants were measured using phenolphthalein-glucuronic acid as substrate. Analysis of variance was used for multiple comparison.
(§2) Neutrophil enzyme release was studied by a modification of the method of Goldstein and colleagues (Goldstein et al., 1973). Cytochalasin B (Sigma Chemical Co.) was stored in dimethyl sulfoxide at a concentration of 5 mg/ml and was diluted to a concentration of 50 μg/ml in Hank's Balanced Salt Solution (HBSS) immediately before use. Cytochalasin B, 200 μl, was added to 1 ml of suspension of neutrophils, 6.25×10^6 cells/ml in HBSS, to achieve a final cytochalasin B concentration of […]. The solution was then incubated in 96 well plates at room temperature for 10 min. The stimulant, 100 μl, was added, and this cell suspension was incubated for 30 min at 37° C. The plates were centrifuged and 100 μl of supernatant was removed. […] After 16 hr incubation at 37° C., 200 μl of 0.2 M Glycine in 0.2 M NaCl, pH10.4 was added to each well and OD540 was measured as the enzyme activity.

[3] = test system: C5a-stimulated neutrophil enzyme release; assay: β-glucuronidase release from neutrophils stimulated by C5a; format: cell-based, human; conditions: 100 nM C5a
Procedure: as §1, §2

[4] = test system: MGSA/GROα receptors on RPMI-7951 melanoma cells; assay: Binding of 125I-MGSA/GROα to RPMI-7951 melanoma cells; conditions: RPMI-7951, 1 nM 125I-labeled MGSA/GROα; read-out: EC50, inhibition of MGSA/GROα binding
Procedure: FIG. 11A. The binding of ^125I-labeled MGSA/GROα to melanoma cell lines, Hs 294T and RPMI-7951. The melanoma cells, 1×10^5, were incubated with 1 nM ^125I-MGSA/GROα in the presence of various concentrations of unlabeled MGSA/GROα. Binding inhibition curve with Hs 294T (closed circles) and RPMI-7951 (open circles). The lines shown in the graph are the best fit curves calculated using the London II computer program.
FIG. 13. The effect of Antileukinate on the binding of radiolabeled MGSA/GROα to the melanoma cell lines. The melanoma cells, Hs 294T (closed circles) and RPMI-7951 (open circles), were incubated with 1 nM ^125I-MGSA/GROα in the presence of different concentrations of Antileukinate. The lines shown in the graph are the best fit curves calculated using the London II computer program.
Recombinant human MGSA/GROα and IL-8 were purchased form Pepro Tech Inc. (Rocky Hill, N.J.) and radioactively labeled using ^125I-labeled Bolton-Hunter reagent (DuPont-NEN, Wilmington, Del.) (Bolton and Hunter, 1973). The labeled proteins were isolated using Sephadex G-25 column (Column PD-10, Pharmacia) pre-equilibrated with PBS containing 0.1% gelatin and stored at −70° C. after the addition of 1% bovine serum albumin.
Binding studies with melanoma cell lines were performed by the method of Horuk and colleagues (Horuk et al., 1993). Briefly, the cells (1×10^5 cells/well) in 24-well plates were washed two times with Hank's Balanced Salt Solution and incubated with ^125I-labeled MGSA/GROα or IL-8 in the buffer containing 1% bovine serum albumin at 4° C. for 3 hr. The incubation was terminated by vacuum aspiration of the supernatant. The cells were washed three times in binding buffer, solubilized by the addition of 200 μl of 1% SDS, and transferred to vials for counting. The non-specific binding was estimated by measuring the binding in the presence of 100-fold excess of non-labeled ligand. The binding parameters were calculated using the Lundon II computer program (Lundon Software Inc., Chagrin Falls, Ohio).

[5] = test system: SP2/o mouse myeloma cell lines; assay: Growth of SP2/o myeloma cells stimulated by murine interleukin-6; format: cell-based
A375SM melanoma cells = assay: Tumor cell growth, A375SM; format: cell-based
[6] = test system: adenocarcinoma from stomach Hs746T; assay: Tumor cell growth, Hs746T; format: cell-based
[7] = test system: adenocarcinoma from breast tissue MCF-7; assay: Tumor cell growth, MCF-7; format: cell-based
[8] = Hep G2 culture, 100 μM peptide
Procedure: Analysis for the breakdown of Antileukinate in the culture of Hep G2 cells. A total concentration of tritium labeled and unlabeled Antileukinate of 100 μM, was added to the culture of Hep G2 cells. Aliquots of medium were removed at different times and chromatographed on an HPLC Bondapak C18 reversed phase column. The peptides were eluted using a gradient from 0.1% TFA to 80% acetonitrile in 0.1% TFA. One milliliter fractions were collected and measured for their radioactivity using a liquid scintillation counter. The chromatographs show the elution volume of the radioactivity at different times after addition to the cells.
Hs 294T and Hep G2 cells, 2×10^4 cell/well, were cultured in 24 well tissue culture plates for 24 hr. Then the culture media were replaced with media containing tritiated Antileukinate, 0.2 μCi, mixed with 100 μM unlabeled peptide in each well. The cells were then cultured for the indicated periods. The supernatants were collected and stored at −70° C. until use. The breakdown of Antileukinate during the cell culture was analyzed on high performance liquid chromatography (HPLC) using an analytical C18 reversed phase column (Waters Co., New Bedford, Mass.). […] One milliliter fractions were collected and measured for their radioactivity content using a liquid scintillation counter.

T1 sequence (P25025 whole entry): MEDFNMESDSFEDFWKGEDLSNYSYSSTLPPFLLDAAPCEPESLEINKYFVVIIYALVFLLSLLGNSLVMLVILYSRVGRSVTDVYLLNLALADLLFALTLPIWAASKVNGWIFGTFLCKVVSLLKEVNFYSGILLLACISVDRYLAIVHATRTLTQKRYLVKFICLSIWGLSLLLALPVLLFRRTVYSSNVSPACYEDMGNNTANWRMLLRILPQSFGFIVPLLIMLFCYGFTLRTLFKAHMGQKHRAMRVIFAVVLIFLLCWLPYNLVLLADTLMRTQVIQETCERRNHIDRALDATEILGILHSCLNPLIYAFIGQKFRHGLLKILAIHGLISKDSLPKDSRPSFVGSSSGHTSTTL

## RRWWCR [Ac-RRWWCR-NH2]
[1]; listed as Ac-RRWWCX-NH2
  effect on binding of MIP2β to neutrophils: effectively suppress the binding
[1]; listed as Antileukinate
  effect on binding of MIP2β to neutrophils: suppressed the binding
[2]
  effect on enzyme release stimulated by fMLP: did not affect the enzyme release
[3]
  effect on enzyme release stimulated by C5a: did not affect the enzyme release
[4]
  pEC50: ~6.00
[5]
  effect on growth of SP2/o mouse myeloma cell lines: did not affect the growth
A375SM melanoma cells
  effect on cell growth: suppresses the growth
[6]
  effect on cell growth: inhibits growth
[7]
  effect on cell growth: inhibits growth
neutrophils; 100 μM peptide, RPMI-1640 1% BSA, 30 min at 37° C.
  cell lysis under conditions used in chemotaxis: had no effect
neutrophils; 500 μM peptide, RPMI-1640 1% BSA, 30 min at 37° C.
  cells damaged under conditions used in chemotaxis: ~25%
neutrophils; PBS containing 0.1% BSA, 90 min at 4° C., up to 500 μM peptide
  percentage of cells lysed: remained near control level
[8]
  time within which the peptide is substantially eliminated from the culture: ≤ 24 h
[8]; after 24 hr
  decrease of the major radioactivity peak (intact peptide): more than 85%
